Measurements from patent US7964531B2, “3-phenoxy-4-pyridazinol derivatives and herbicidal composition containing the same” (Mitsui Chemicals Agro, Inc., priority 2001, dated 2011).
Where a name gives a salt, the structure may show the parent alone.

| Compound | melting point [°C] |
| --- | --- |
| Cc1ccc(N(C)C)cc1Oc1nnc(Cl)cc1O [Compound No. 628, 6-Chloro-3-[5-(dimethylamino)-2-methylphenoxy]-4-pyridazinol] | 181 to 182 |
| Oc1cc(Cl)nnc1Oc1ccccc1C1(F)CC1 [Compound No. 140, 6-Chloro-3-[2-(1-fluorocyclopropyl)phenoxy]-4-pyridazinol] | 152 to 157 |
| Cc1ccc(C(=O)O)cc1Oc1nnc(Cl)cc1O [Compound No. 626, 3-[(6-Chloro-4-hydroxy-3-pyridazinyl)oxy]-4-methylbenzoic acid] | 238 to 240 |
| Oc1cc(Cl)nnc1Oc1cccc2sccc12 [Compound No. 534, 3-(1-Benzothien-4-yloxy)-6-chloro-4-pyridazinol] | 181 to 183 |
| CC(C)c1ccc(C2CC2)c(Oc2nnc(Cl)cc2O)c1 [Compound No. 664, 6-Chloro-3-(2-cyclopropyl-5-isopropylphenoxy)-4-pyridazinol] | 211 to 212 |
| Oc1cc(Cl)nnc1Oc1cccc2c1CC2 [Compound No. 505, 3-(Bicyclo[4.2.0]octa-1,3,5-trien-2-yloxy)-6-chloro-4-pyridazinol] | 145 to 155 |
| C=CCc1ccccc1Oc1nnc(Cl)cc1O [Compound No. 307, 3-(2-Allylphenoxy)-6-chloro-4-pyridazinol] | 200 to 202.5 |
| COc1cccc(Br)c1Oc1nnc(Cl)cc1O [Compound No. 778, 3-(2-Bromo-6-methoxyphenoxy)-6-chloro-4-pyridazinol] | 220 to 221 |
| Oc1cc(Cl)nnc1Oc1c(Cl)cccc1I [Compound No. 735, 6-Chloro-3-(2-chloro-6-iodophenoxy)-4-pyridazinol] | 262 to 264 |
| CCCCc1ccccc1Oc1nnc(Cl)cc1O [Compound No. 133, 3-(2-Butylphenoxy)-6-chloro-4-pyridazinol] | 149.5 to 150 |
| Cc1cccc(Oc2nnc(Cl)cc2O)c1Br [Compound No. 450, 3-(2-Bromo-3-methylphenoxy)-6-chloro-4-pyridazinol] | 140 to 141 |
| CC1(C)CC1c1ccccc1Oc1nnc(Cl)cc1O (stereo not shown) [Compound No. 267, 6-Chloro-3-[2-(2,2-dimethylcyclopropyl)phenoxy]-4-pyridazinol] | 187 to 188 |
| Oc1cc(Cl)nnc1Oc1c(Br)cccc1Br [Compound No. 756, 6-Chloro-3-(2,6-dibromophenoxy)-4-pyridazinol] | 274 to 278 |
| Cc1cccc(C)c1Oc1nnc(Cl)cc1O [Compound No. 801, 6-Chloro-3-(2,6-dimethylphenoxy)-4-pyridazinol] | 214 to 215 |
| CC1(C)Cc2cccc(Oc3nnc(Cl)cc3O)c2O1 [Compound No. 540, 6-Chloro-3-[(2,2-dimethyl-2,3-dihydro-1-benzofuran-7-yl)oxy]-4-pyridazinol] | 228 to 229.5 |
| O=Cc1cccc(Oc2nnc(Cl)cc2O)c1 [Compound No. 421, 3-[(6-Chloro-4-hydroxy-3-pyridazinyl)oxy]benzaldehyde] | 188 to 192 |
| Oc1cc(Cl)nnc1Oc1ccccc1 [Compound No. 123, 6-Chloro-3-phenoxy-4-pyridazinol] | 222 to 224 |
| CC1CC1c1ccccc1Oc1nnc(Cl)cc1O (stereo not shown) [Compound No. 217, 6-Chloro-3-[2-(2-methylcyclopropyl)phenoxy]-4-pyridazinol] | 192 to 208 |
| Cc1nc2c(Oc3nnc(Cl)cc3O)cccc2o1 [Compound No. 538, 6-Chloro-3-[(2-methyl-1,3-benzoxazol-4-yl)oxy]-4-pyridazinol] | 221 to 222 |
| Cc1ccc(Oc2nnc(Cl)cc2O)c(C(C)(C)C)c1 [Compound No. 567, 3-(2-tert-Butyl-4-methylphenoxy)-6-chloro-4-pyridazinol] | 230 to 236 |
| Oc1cc(Cl)nnc1Oc1cccc2c1C1CC1C2 (stereo not shown) [Compound No. 515, 3-(1,1a,6,6a-Tetrahydrocyclopropa[a]inden-2-yloxy)-6-chloro-4-pyridazinol] | 245 to 247 |
| CC(C)(C)c1cccc(Oc2nnc(Cl)cc2O)c1 [Compound No. 416, 3-(3-tert-Butylphenoxy)-6-chloro-4-pyridazinol] | 203 to 207 |
| CCc1ccc(OC)cc1Oc1nnc(Cl)cc1O [Compound No. 635, 6-Chloro-3-(2-ethyl-5-methoxyphenoxy)-4-pyridazinol] | 124 to 126 |
| CCC(C)c1cccc(C)c1Oc1nnc(Cl)cc1O (stereo not shown) [Compound No. 804, 3-(2-s-Butyl-6-methylphenoxy)-6-chloro-4-pyridazinol] | 187 to 189 |
| Oc1cc(Cl)nnc1Oc1ccc(C2CC2)cc1 [Compound No. 434, 6-Chloro-3-(4-cyclopropylphenoxy)-4-pyridazinol] | 221 to 227 |
| Oc1cc(Cl)nnc1Oc1ccc(Cl)cc1Cl [Compound No. 552, 6-Chloro-3-(2,4-dichlorophenoxy)-4-pyridazinol] | 233 to 237 |
| CC(=O)c1cccc(Oc2nnc(Cl)cc2O)c1 [Compound No. 422, 1-{3-[(6-Chloro-4-hydroxy-3-pyridazinyl)oxy]phenyl}ethanone] | 195 to 198 |
| CCC1(c2ccccc2Oc2nnc(Cl)cc2O)CC1 [Compound No. 145, 6-Chloro-3-[2-(1-ethylcyclopropyl)phenoxy]-4-pyridazinol] | 162 to 165 |
| Oc1cc(Cl)nnc1Oc1ccccc1-c1ccsc1 [Compound No. 361, 6-Chloro-3-[2-(3-thienyl)phenoxy]-4-pyridazinol] | 207 to 209 |

Results, then the compound that gave them:

| melting point [°C] | Compound |
| --- | --- |
| 115 to 123 | COC(=O)c1ccc(OC)c(Oc2nnc(Cl)cc2O)c1 [Compound No. 2574, Methyl 3-[(6-chloro-4-hydroxy-3-pyridazinyl)oxy]-4-methoxybenzoate] |
| 157 to 158 | Cc1ccccc1Oc1nnc(Cl)cc1OC(=O)c1ccccc1C(=O)Oc1cc(Cl)nnc1Oc1ccccc1C [Compound No. 2827, Bis[6-chloro-3-(2-methylphenoxy)-4-pyridazinyl]phthalate] |
| 242 to 245 | CC(C)c1cccc(C2CC2)c1Oc1nnc(Cl)cc1O [Compound No. 896, 6-Chloro-3-(2-cyclopropyl-6-isopropylphenoxy)-4-pyridazinol] |
| 241 to 248 | Cc1cc(Br)c(C)c(Br)c1Oc1nnc(Cl)cc1O [Compound No. 1118, 6-Chloro-3-(2,4-dibromo-3,6-dimethylphenoxy)-4-pyridazinol] |
| 35 to 37 | CCCCCCCCCCCCCCC(=O)Oc1cc(Cl)nnc1Oc1c(C)cccc1C1CC1 [Compound No. 1260, 6-Chloro-3-(2-cyclopropyl-6-methylphenoxy)-4-pyridazinyl pentadecanoate] |
| 131 to 135 | C=CCc1cccc(CC=C)c1Oc1nnc(Cl)cc1O [Compound No. 982, 6-Chloro-3-(2,6-diallylphenoxy)-4-pyridazinol] |
| 183 to 186 | C=C(C)c1cccc(C)c1Oc1nnc(Cl)cc1O [Compound No. 2577, 6-Chloro-3-(2-isopropenyl-6-methylphenoxy)-4-pyridazinol] |
| 149 to 152 | CC(C)=Cc1ccccc1Oc1nnc(Cl)cc1O [Compound No. 2540, 6-Chloro-3-[2-(2-methyl-1-propenyl)phenoxy]-4-pyridazinol] |
| 125.5 to 126.5 | Cc1ccc(S(=O)(=O)Oc2ccccc2Oc2nnc(Cl)cc2OS(=O)(=O)c2ccc(C)cc2)cc1 (as salt: benzene sulfonate) [Compound No. 2233, 2-[(6-Chloro-4-{[(4-methylphenyl)sulfonyl]oxy}-3-pyridazinyl)oxy]phenyl 4-methylbenzene sulfonate] |
| 204 to 206 | Cc1cc(Oc2nnc(Cl)cc2O)cc(C(C)C)c1 [Compound No. 1000, 6-Chloro-3-(3-isopropyl-5-methylphenoxy)-4-pyridazinol] |
| 92 to 93 | Cc1cccc(C2CC2)c1Oc1nnc(Cl)cc1OC(=O)c1cnccc1C(F)(F)F [Compound No. 3462, 6-Chloro-3-(2-cyclopropyl-6-methylphenoxy)-4-pyridazinyl 4-(trifluoromethyl)nicotinate] |
| 166 to 169 | Cc1ccccc1Oc1nnc(Cl)cc1OS(=O)(=O)c1ccc([N+](=O)[O-])cc1 [Compound No. 2287, 6-Chloro-3-(2-methylphenoxy)-4-pyridazinyl 4-nitrobenzenesulfonate] |
| 246 to 253 | COc1ccc(Br)c(Oc2nnc(Cl)cc2O)c1C [Compound No. 1066, 3-(6-Bromo-3-methoxy-2-methylphenoxy)-6-chloro-4-pyridazinol] |
| 189 to 192 | CON=C(C)c1ccc(Oc2nnc(Cl)cc2O)c(C)c1 [Compound No. 2571, 1-{4-[(6-Chloro-4-hydroxy-3-pyridazinyl)oxy]-3-methylphenyl}ethanone O-methyloxime] |
| 236 to 237 | Cc1ccccc1Oc1nnc(-c2ccccc2)cc1O [Compound No. 2464, 3-(2-Methylphenoxy)-6-phenyl-4-pyridazinol] |
| 184 to 185 | Oc1cc(Cl)nnc1Oc1cccc(OCc2ccccc2)c1 [Compound No. 2547, 3-[3-(Benzyloxy)phenoxy]-6-chloro-4-pyridazinol] |
| 98 to 100 | C=C(C)C(=O)Oc1cc(Cl)nnc1Oc1c(C)cccc1C1CC1 [Compound No. 2677, 6-Chloro-3-(2-cyclopropyl-6-methylphenoxy)-4-pyridazinyl 2-methylacrylate] |
| 86 to 87 | Cc1ccccc1Oc1nnc(-c2cccs2)cc1O [Compound No. 2478, 3-(2-Methylphenoxy)-6-(2-thienyl)-4-pyridazinol] |
| 249 to 253 | CC(C)c1cc(Oc2nnc(Cl)cc2O)cc(C(C)C)c1 [Compound No. 1007, 6-Chloro-3-(3,5-diisopropylphenoxy)-4-pyridazinol] |
| 235 to 239 | Cc1cc(C)c(Oc2nnc(Cl)cc2O)c(C)c1 [Compound No. 1122, 6-Chloro-3-(2,4,6-trimethylphenoxy)-4-pyridazinol] |
